In patent US20050282841A1 (priority 2004, published 2005):

What was measured:
Assay type in all cases: in vivo
Conditions in all cases: on tomatoes, wheat and vine crops
[1] = system: Late blight (Phytophthora infestans)
[2] = system: Powdery mildew (Erisyphe araminis); experiment: fungicidal effectiveness against Powdery mildew
[3] = system: Brown rust (Puccinia recondita); experiment: fungicidal effectiveness against Brown rust
[4] = system: Septoria leaf spot (Septoria tritici); experiment: fungicidal effectiveness against Septoria leaf spot

CO/C=C(/C(=O)OC(c1ccccc1)(c1cncnc1)c1ccc(Cl)cc1Cl)c1ccccc1Oc1cc(Oc2ccccc2C#N)ncn1 (racemic) [Example 1, (RS)-2,4-dichloro-α-(pyrimidin-5-yl)benzhydryl (E)-2-{2-[6-(2-cyanophenoxy)pyrimidin-4-yloxy]phenyl}-3-methoxyacrylate]
effective: effectiveness against fungal pathogen Late blight (Phytophthora infestans) [1] | effectiveness against fungal pathogen Powdery mildew (Erisyphe araminis) [2] | effectiveness against fungal pathogen Brown rust (Puccinia recondita) [3] | effectiveness against fungal pathogen Septoria leaf spot (Septoria tritici) [4]

CO/N=C(/C(=O)OC(CCc1ccc(Cl)cc1)(Cn1cncn1)C(C)(C)C)c1ccccc1CO/N=C(\C)c1cccc(C(F)(F)F)c1 (racemic) [Example 3, (RS)-1-p-chlorophenyl-4,4-dimethyl-3-(1H-1,2,4-triazol-1-ylmethyl)pentan-3-yl (E)-methoxyimino-{(E)-α-[1-(α,α,α-trifluoro-m-tolyl)ethylideneaminooxy]-o-tolyl}acetate]
effective: effectiveness against fungal pathogen Late blight (Phytophthora infestans) [1] | effectiveness against fungal pathogen Powdery mildew (Erisyphe araminis) [2] | effectiveness against fungal pathogen Brown rust (Puccinia recondita) [3] | effectiveness against fungal pathogen Septoria leaf spot (Septoria tritici) [4]

CO/N=C(/C(=O)OC(Cn1cncn1)(c1ccc(Cl)cc1)C(C)C1CC1)c1ccccc1COc1ccccc1C (racemic) [Example 2, (2RS,3RS;2RS,3SR)-2-(4-chlorophenyl)-3-cyclopropyl-1-(1H-1,2,4-triazol-1-yl)butan-2-yl (E)-methoxyimino[α-(o-tolyloxy)-o-tolyl]acetate]
effective: effectiveness against fungal pathogen Late blight (Phytophthora infestans) [1] | effectiveness against fungal pathogen Powdery mildew (Erisyphe araminis) [2] | effectiveness against fungal pathogen Brown rust (Puccinia recondita) [3] | effectiveness against fungal pathogen Septoria leaf spot (Septoria tritici) [4]
